Data from the NIST ThermoML archive (doi:10.1016/j.jct.2015.01.013).
Numbers after ± are expanded uncertainties.

Assays:
[1] = 298.15 K; 101.33 kPa; Liquid; Vibrating tube method
[2] = excess molar enthalpy (molar enthalpy of mixing); xn = mol fraction of the nth substance listed; settings: 298.15 K, 101 kPa, Liquid, Flow calorimetry

## CO [methanol]
[1]
  mass density: 786.2 ± 0.2 kg/m3

## C=C(C)CC(C)(C)C [2,4,4-trimethyl-1-pentene] + CO
[2]; x2 = 0.023
  excess molar enthalpy: 0.239 ± 0.012 kJ/mol
[2]; x2 = 0.1
  excess molar enthalpy: 0.449 ± 0.022 kJ/mol
[2]; x2 = 0.198
  excess molar enthalpy: 0.524 ± 0.026 kJ/mol
[2]; x2 = 0.301
  excess molar enthalpy: 0.577 ± 0.028 kJ/mol
[2]; x2 = 0.398
  excess molar enthalpy: 0.584 ± 0.028 kJ/mol
[2]; x2 = 0.498
  excess molar enthalpy: 0.584 ± 0.028 kJ/mol
[2]; x2 = 0.598
  excess molar enthalpy: 0.563 ± 0.027 kJ/mol
[2]; x2 = 0.698
  excess molar enthalpy: 0.511 ± 0.025 kJ/mol
[2]; x2 = 0.798
  excess molar enthalpy: 0.428 ± 0.021 kJ/mol
[2]; x2 = 0.899
  excess molar enthalpy: 0.282 ± 0.014 kJ/mol

## C=C(C)CC(C)(C)C [2,4,4-trimethyl-1-pentene]
[1]
  mass density: 710.7 ± 0.2 kg/m3

## CC(C)O [propan-2-ol]
[1]
  mass density: 780.8 ± 0.2 kg/m3

## C1CCCCC1 [cyclohexane]
[1]
  mass density: 773.5 ± 0.2 kg/m3

## C1CCCCC1 [cyclohexane] + CC(C)O
[2]; x2 = 0.0995
  excess molar enthalpy: 0.519 ± 0.025 kJ/mol
[2]; x2 = 0.2009
  excess molar enthalpy: 0.702 ± 0.034 kJ/mol
[2]; x2 = 0.3009
  excess molar enthalpy: 0.801 ± 0.039 kJ/mol
[2]; x2 = 0.4014
  excess molar enthalpy: 0.831 ± 0.04 kJ/mol
[2]; x2 = 0.5016
  excess molar enthalpy: 0.801 ± 0.039 kJ/mol
[2]; x2 = 0.6011
  excess molar enthalpy: 0.723 ± 0.035 kJ/mol
[2]; x2 = 0.701
  excess molar enthalpy: 0.6 ± 0.029 kJ/mol
[2]; x2 = 0.8005
  excess molar enthalpy: 0.438 ± 0.022 kJ/mol
[2]; x2 = 0.9005
  excess molar enthalpy: 0.239 ± 0.012 kJ/mol
